Test results: US8785439B2, “2,5,7-substituted oxazolopyrimidine derivatives” (Sanofi, priority 2010, dated 2014)

The compounds below were run against T1, human Edg-1 receptor (Homo sapiens, UniProt P21453) (assay: GTP-γ-S assay using human Edg-1 receptors (SPA, CHO Flp-In cell membrane preparation)). Conditions: test compound at 10 μM; high control 10 μM S1P regarded as 100% activation; background-corrected; triplicate; read-out: % Activation (Edg-1 receptor activation in percent of the activation by 10 μM S1P).
T1 construct: FLAG (N); expressed in transfected cells; membrane preparation
T1 sequence (P21453 whole entry): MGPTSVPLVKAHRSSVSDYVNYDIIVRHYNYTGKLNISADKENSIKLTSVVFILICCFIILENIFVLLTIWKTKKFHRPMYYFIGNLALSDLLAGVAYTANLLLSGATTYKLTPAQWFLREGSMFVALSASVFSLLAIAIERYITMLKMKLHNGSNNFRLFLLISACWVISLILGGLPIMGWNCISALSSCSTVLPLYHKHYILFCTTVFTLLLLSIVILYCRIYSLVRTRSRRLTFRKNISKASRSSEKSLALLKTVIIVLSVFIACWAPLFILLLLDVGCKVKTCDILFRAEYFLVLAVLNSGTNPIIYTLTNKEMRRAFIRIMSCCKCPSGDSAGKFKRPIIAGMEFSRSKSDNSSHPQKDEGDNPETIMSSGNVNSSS
Type: biochemical
Text: Determination of the Pharmacological Activity A) GTP-γ-S Assay Using Human Edg-1 Receptors
In order to determine the Edg-1 receptor activation by the compounds of the invention, a GTP-γ-S (guanosine 5′-[γ-thio]triphosphate) assay for G-protein coupled receptor binding based on the scintillation proximity assay principle was used, employing a cell membrane preparation from a CHO Flp-In cell line which constitutively overexpresses the human Edg-1 receptor.
The Flp-In™ expression system (Invitrogen, cat. no. K6010-01) allows the generation of stable mammalian cell lines into which the gene of interest has been integrated through homologous recombination at a specific genomic location called Flp Recombination Target (FRT) site by means of a Flp recombinase encoded by the pOG44 expression plasmid. The integration of the pcDNA5/FRT expression construct into the Flp-In host cell line genome results in the transcription of the gene of interest. The stably transfected cells become hygromycin-resistant.
One day prior to transfection, 200 000 Flp-In-CHO cells were seeded in Ham F-12 medium (Invitrogen, cat. no. 31765) supplemented with 10% fetal calf serum (FCS; Perbio Science, cat. no. SH30068.03) in a 6-well plate and incubated at 37° C./5% CO2 overnight. Using the FuGENE® 6 transfection reagent (Roche, cat. no. 11988387001), cells were cotransfected with the Flp recombinase expression plasmid pOG44 and a modified plasmid additionally containing the edg-1 gene (accession no. NM_001400) termed as pcDNA5-FRT-TO_nFLAG_DEST-EDG-1 with a 9:1 ratio. To obtain the modified pcDNA5-FRT-TO_nFLAG_DEST plasmid, the Invitrogen plasmid pcDNA5/FRT/TO (Invitrogen, cat. no. V6520-20) was adapted to the Gateway® (Invitrogen) cloning system by inserting a Gateway cassette containing attR recombination sites flanking a ccdB gene and a chloramphenicol-resistance gene (Gateway conversion system, Invitrogen, cat. no. 11828-029). In addition a FLAG tag epitope was added before the 5′ att recombination site to allow recombinant expression of N-terminally FLAG-tagged proteins.
For the transfection of one well, 1.08 μg of pOG44 and 0.12 μg of pcDNA5-FRT-TO_nFLAG_DEST-EDG-1 were mixed with 100 μl of serum-free Ham F-12 medium containing 6 μl of FuGENE® 6 transfection reagent. After 20 min of incubation, the transfection reagent/DNA complex was distributed dropwise on the cells. The cells were incubated for 24 h at 37° C. Then the cells from 3 wells each were transferred to a T75 flask (Greiner Cellstar®, cat. no. 658175) containing Ham F-12 medium supplemented with 10% of FCS but without antibiotic and were incubated another 24 h. 48 h after transfection, the medium was replaced by selection medium (Ham F-12 supplemented with 10% of FCS and 300 μg/ml of hygromycin B (Invitrogen, cat. no. 10687-010)). The medium was exchanged every 2 to 3 days until a resistant population of cells had grown. […] After 2 weeks of selection, the cells were transferred into T175 flasks (Greiner Cellstar®, cat. no. 660175) and cultivated for batch production. Cells were harvested from the culture flasks by short treatment (2 to 5 min) with Accutase (PAA, cat. no. L11-007), resuspended in selection medium (see above) and centrifuged at 200×g for 5 min. Cells were resuspended in a mixture of 90% of FCS and 10% of dimethylsulfoxide and stored frozen in liquid nitrogen.
A membrane preparation was obtained by standard methods from the afore-described CHO Flp-In cell line constitutively overexpressing the human Edg-1 receptor. Briefly, the cryopreserved cells were taken in culture and grown until confluency in T175 cell culture flasks (Becton Dickinson, cat. no. 35 5001). […]
An activation at 10 µM of 102% was found for CCCOc1nc(Sc2nc(C)cs2)nc2oc(-c3cc(F)ccc3Cl)nc12 [Example 58, 2-(2-chloro-5-fluoro-phenyl)-5-(4-methyl-thiazol-2-ylsulfanyl)-7-propoxy-oxazolo[5,4-d]pyrimidine] in this work. An activation at 10 µM of 103% was found for CCCOc1nc(Sc2nccs2)nc2oc(-c3cc(F)ccc3Cl)nc12 [Example 59, 2-(2-chloro-5-fluoro-phenyl)-7-propoxy-5-(thiazol-2-ylsulfanyl)-oxazolo[5,4-d]pyrimidine] in this work. An activation at 10 µM of 80% was found for CCCOc1nc(Oc2ccc(Cl)cc2OC)nc2oc(-c3cccc(F)c3)nc12 [Example 60, 5-(4-chloro-2-methoxy-phenoxy)-2-(3-fluoro-phenyl)-7-propoxy-oxazolo[5,4-d]pyrimidine] in this work. An activation at 10 µM of 74% was found for CCCOc1nc(Oc2ccccc2)nc2oc(-c3cccc(F)c3)nc12 [Example 61, 2-(3-fluoro-phenyl)-5-phenoxy-7-propoxy-oxazolo[5,4-d]pyrimidine] in this work. An activation at 10 µM of 111% was found for CCCOc1nc(OC2CCCCC2)nc2oc(-c3cccc(F)c3)nc12 [Example 62, 5-cyclohexyloxy-2-(3-fluoro-phenyl)-7-propoxy-oxazolo[5,4-d]pyrimidine] in this work. An activation at 10 µM of 80% was found for CCCOc1nc(Oc2ccc(Cl)cc2OC)nc2oc(-c3cc(F)ccc3Cl)nc12 [Example 63, 2-(2-chloro-5-fluoro-phenyl)-5-(4-chloro-2-methoxy-phenoxy)-7-propoxy-oxazolo[5,4-d]pyrimidine] in this work. An activation at 10 µM of 109% was found for CCCOc1nc(NC2CCC(F)(F)CC2)nc2oc(-c3cc(F)ccc3Cl)nc12 [Example 64, [2-(2-chloro-5-fluoro-phenyl)-7-propoxy-oxazolo[5,4-d]pyrimidin-5-yl]-(4,4-difluoro-cyclohexyl)-amine] in this work. An activation at 10 µM of 105% was found for CCCOc1nc(NN2CCOCC2)nc2oc(-c3cccc(C)c3)nc12 [Example 65, morpholin-4-yl-(7-propoxy-2-(3-methyl-phenyl)-oxazolo[5,4-d]pyrimidin-5-yl)-amine] in this work. An activation at 10 µM of 106% was found for CCCOc1nc(Oc2cc(Cl)ccc2C)nc2oc(-c3cc(F)ccc3Cl)nc12 [Example 66, 2-(2-chloro-5-fluoro-phenyl)-5-(5-chloro-2-methyl-phenoxy)-7-propoxy-oxazolo[5,4-d]pyrimidine] in this work. An activation at 10 µM of 84% was found for CCCOc1nc(Oc2cc(Cl)ccc2C)nc2oc(-c3cccc(F)c3)nc12 [Example 67, 5-(5-chloro-2-methyl-phenoxy)-2-(3-fluoro-phenyl)-7-propoxy-oxazolo[5,4-d]pyrimidine] in this work. An activation at 10 µM of 41% was found for CCCOc1nc(Oc2cccc(SC(F)(F)F)c2)nc2oc(-c3cc(F)ccc3Cl)nc12 [Example 68, 2-(2-chloro-5-fluoro-phenyl)-7-propoxy-5-(3-trifluoromethylsulfanyl-phenoxy)-oxazolo[5,4-d]pyrimidine] in this work. An activation at 10 µM of 41% was found for CCCOc1nc(Oc2cccc(SC(F)(F)F)c2)nc2oc(-c3cccc(F)c3)nc12 [Example 69, 2-(3-fluoro-phenyl)-7-propoxy-5-(3-trifluoromethylsulfanyl-phenoxy)-oxazolo[5,4-d]pyrimidine] in this work. An activation at 10 µM of 77% was found for CCCOc1nc(OC2CCC(C)CC2)nc2oc(-c3cccc(C)c3)nc12 (stereo not drawn) [Example 70, 5-(4-methyl-cyclohexyloxy)-7-propoxy-2-(3-methyl-phenyl)-oxazolo[5,4-d]pyrimidine] in this work. An activation at 10 µM of 102% was found for CCCOc1nc(OC2CCOCC2)nc2oc(-c3cccc(C)c3)nc12 [Example 71, 7-propoxy-5-(tetrahydro-pyran-4-yloxy)-2-(3-methyl-phenyl)-oxazolo[5,4-d]pyrimidine] in this work. An activation at 10 µM of 95% was found for CCCOc1nc(Oc2cncc(F)c2)nc2oc(-c3cc(F)ccc3Cl)nc12 [Example 72, 2-(2-chloro-5-fluoro-phenyl)-5-(5-fluoro-pyridin-3-yloxy)-7-propoxy-oxazolo[5,4-d]pyrimidine] in this work. An activation at 10 µM of 80% was found for CCCOc1nc(Oc2ccc(C)cc2)nc2oc(-c3cccc(C)c3)nc12 [Example 73, 7-propoxy-2-(3-methyl-phenyl)-5-p-tolyloxy-oxazolo[5,4-d]pyrimidine] in this work. An activation at 10 µM of 69% was found for CCCOc1nc(Oc2ccc(Cl)c(F)c2)nc2oc(-c3cccc(C)c3)nc12 [Example 74, 5-(4-chloro-3-fluoro-phenoxy)-7-propoxy-2-(3-methyl-phenyl)-oxazolo[5,4-d]pyrimidine] in this work. An activation at 10 µM of 72% was found for CCCOc1nc(Oc2ccc(OC)cc2F)nc2oc(-c3cccc(C)c3)nc12 [Example 75, 5-(2-fluoro-4-methoxy-phenoxy)-7-propoxy-2-(3-methyl-phenyl)-oxazolo[5,4-d]pyrimidine] in this work. An activation at 10 µM of 81% was found for CCCOc1nc(Oc2ccccn2)nc2oc(-c3cccc(C)c3)nc12 [Example 76, 7-propoxy-5-(pyridin-2-yloxy)-2-(3-methyl-phenyl)-oxazolo[5,4-d]pyrimidine] in this work. An activation at 10 µM of 111% was found for CCCOc1nc(Oc2cccnc2)nc2oc(-c3cccc(C)c3)nc12 [Example 77, 7-propoxy-5-(pyridin-3-yloxy)-2-(3-methyl-phenyl)-oxazolo[5,4-d]pyrimidine] in this work. An activation at 10 µM of 70% was found for CCCOc1nc(Oc2ccccc2)nc2oc(-c3cc(F)ccc3Cl)nc12 [Example 78, 2-(2-chloro-5-fluoro-phenyl)-5-phenoxy-7-propoxy-oxazolo[5,4-d]pyrimidine] in this work. An activation at 10 µM of 64% was found for CCCOc1nc(Oc2cc(F)ccc2C)nc2oc(-c3cc(F)ccc3Cl)nc12 [Example 79, 2-(2-chloro-5-fluoro-phenyl)-5-(5-fluoro-2-methyl-phenoxy)-7-propoxy-oxazolo[5,4-d]pyrimidine] in this work. An activation at 10 µM of 46% was found for CCCOc1nc(OC2CCCCC2)nc2oc(-c3cc(F)ccc3Cl)nc12 [Example 80, 2-(2-chloro-5-fluoro-phenyl)-5-cyclohexyloxy-7-propoxy-oxazolo[5,4-d]pyrimidine] in this work. An activation at 10 µM of 89% was found for CCCOc1nc(Oc2ccc(C)c(F)c2)nc2oc(-c3cccc(F)c3)nc12 [Example 81, 5-(3-fluoro-4-methyl-phenoxy)-2-(3-fluoro-phenyl)-7-propoxy-oxazolo[5,4-d]pyrimidine] in this work. An activation at 10 µM of 107% was found for CCCOc1nc(Oc2ccc(SC(F)(F)F)cc2)nc2oc(-c3cccc(F)c3)nc12 [Example 82, 2-(3-fluoro-phenyl)-7-propoxy-5-(4-trifluoromethylsulfanyl-phenoxy)-oxazolo[5,4-d]pyrimidine] in this work. An activation at 10 µM of 63% was found for CCCOc1nc(Oc2cccc3c2OC(C)(C)C3)nc2oc(-c3cccc(C)c3)nc12 [Example 83, 5-(2,2-dimethyl-2,3-dihydro-benzofuran-7-yloxy)-7-propoxy-2-(3-methyl-phenyl)-oxazolo[5,4-d]pyrimidine] in this work. An activation at 10 µM of 60% was found for CCCOc1nc(Oc2cccc3c2OC(C)(C)C3)nc2oc(-c3cc(F)ccc3Cl)nc12 [Example 84, 2-(2-chloro-5-fluoro-phenyl)-5-(2,2-dimethyl-2,3-dihydro-benzofuran-7-yloxy)-7-propoxy-oxazolo[5,4-d]pyrimidine] in this work. An activation at 10 µM of 67% was found for CCCOc1nc(OC2CCC(C)CC2)nc2oc(-c3cc(F)ccc3Cl)nc12 (stereo not drawn) [Example 85, 2-(2-chloro-5-fluoro-phenyl)-5-(4-methyl-cyclohexyloxy)-7-propoxy-oxazolo[5,4-d]pyrimidine] in this work. An activation at 10 µM of 98% was found for CCCOc1nc(Oc2c(Cl)cccc2Cl)nc2oc(-c3cccc(C)c3)nc12 [Example 86, 5-(2,6-dichloro-phenoxy)-7-propoxy-2-(3-methyl-phenyl)-oxazolo[5,4-d]pyrimidine] in this work. An activation at 10 µM of 93% was found for CCCOc1nc(Oc2cccc(C#N)c2)nc2oc(-c3cccc(C)c3)nc12 [Example 87, 3-(7-propoxy-2-(3-methyl-phenyL)-oxazolo[5,4-d]pyrimidin-5-yloxy)-benzonitrile] in this work.
